System: MV-4-11 cells
Test: Gene expression microarray analysis (Affymetrix PrimeView) and GSEA
Format: cell-based, human
Design: RFU PODN (11730768_x_at) / Fold change /veh PODN (11730768_x_at) / RFU LINC00158 (11744669_a_at) / Fold change /veh LINC00158 (11744669_a_at) / RFU DUSP10 (11751237_a_at) / Fold change /veh DUSP10 (11751237_a_at) / RFU ID3 (11757404_x_at) / Fold change /veh ID3 (11757404_x_at) / RFU PLEKHG5 (11737974_s_at) / Fold change /veh PLEKHG5 (11737974_s_at) / RFU LRRC4B (11730491_at) / Fold change /veh LRRC4B (11730491_at) / RFU GIMAP4 (11747438_a_at) / Fold change /veh GIMAP4 (11747438_a_at) / RFU KRT8 (11758183_x_at) / Fold change /veh KRT8 (11758183_x_at) / RFU CNN1 (11734310_a_at) / Fold change /veh CNN1 (11734310_a_at) / RFU VPS37D (11726825_at) / Fold change /veh VPS37D (11726825_at) / RFU C10orf10 (11716522_x_at) / Fold change /veh C10orf10 (11716522_x_at) / RFU KIR2DL2 /// KIR2DL4 /// KIR2DL5A /// KIR2DL5B /// KIR2DS1 /// KIR2DS2 /// KIR2DS3 /// KIR2DS4 /// KIR3DL3 /// KIR3DL3 /// KIR3DS1 (11738374_at) / Fold change /veh KIR2DL2 /// KIR2DL4 /// KIR2DL5A /// KIR2DL5B /// KIR2DS1 /// KIR2DS2 /// KIR2DS3 /// KIR2DS4 /// KIR3DL3 /// KIR3DL3 /// KIR3DS1 (11738374_at) / RFU C1QL1 (11718748_at) / Fold change /veh C1QL1 (11718748_at) / RFU TMPRSS4 (11747572_a_at) / Fold change /veh TMPRSS4 (11747572_a_at) / RFU HAMP (11756126_x_at) / Fold change /veh HAMP (11756126_x_at) / RFU RNFT2 (11725882_a_at) / Fold change /veh RNFT2 (11725882_a_at) / RFU NR4A2 (11747474_a_at) / Fold change /veh NR4A2 (11747474_a_at) / RFU ABCC12 (11746883_a_at) / Fold change /veh ABCC12 (11746883_a_at) / RFU TMEM136 (11760407_x_at) / Fold change /veh TMEM136 (11760407_x_at) / RFU CLDN22 /// WWC2 (11732394_at) / Fold change /veh CLDN22 /// WWC2 (11732394_at) / RFU HLA-DPB1 (11760878_x_at) / Fold change /veh HLA-DPB1 (11760878_x_at) / RFU SPINT1 (11716480_a_at) / Fold change /veh SPINT1 (11716480_a_at) / RFU GAP43 (11754022_s_at) / Fold change /veh GAP43 (11754022_s_at) / RFU A4GNT (11735810_at) / Fold change /veh A4GNT (11735810_at) / RFU PRB3 (11715151_x_at) / Fold change /veh PRB3 (11715151_x_at) / RFU TUBB4B (11761932_at) / Fold change /veh TUBB4B (11761932_at) / RFU CAPN14 (11732068_a_at) / Fold change /veh CAPN14 (11732068_a_at) / RFU TMCC2 (11721928_a_at) / Fold change /veh TMCC2 (11721928_a_at) / RFU IRGQ (11745062_a_at) / Fold change /veh IRGQ (11745062_a_at) / RFU FAM174B (11720279_a_at) / Fold change /veh FAM174B (11720279_a_at) / RFU TMPRSS4 (11748680_a_at) / Fold change /veh TMPRSS4 (11748680_a_at) / RFU FAM212B (11763350_a_at) / Fold change /veh FAM212B (11763350_a_at) / RFU PLEKHG5 (11743358_a_at) / Fold change /veh PLEKHG5 (11743358_a_at) / RFU ZSCAN30 (11745921_a_at) / Fold change /veh ZSCAN30 (11745921_a_at) / RFU CMKLR1 (11741424_a_at) / Fold change /veh CMKLR1 (11741424_a_at) / RFU LOC101060620 /// MAPK8IP1 (11723275_at) / Fold change /veh LOC101060620 /// MAPK8IP1 (11723275_at) / RFU SPTSSB (11747773_x_at) / Fold change /veh SPTSSB (11747773_x_at) / RFU PRSS12 (11739890_at) / Fold change /veh PRSS12 (11739890_at) / RFU BIN1 (11741810_x_at) / Fold change /veh BIN1 (11741810_x_at) / RFU WNT11 (11732464_a_at) / Fold change /veh WNT11 (11732464_a_at) / RFU C10orf10 (11716521_a_at) / Fold change /veh C10orf10 (11716521_a_at) / RFU C5orf56 (11738089_at) / Fold change /veh C5orf56 (11738089_at) / RFU CYB561 (11721691_x_at) / Fold change /veh CYB561 (11721691_x_at) / RFU ANKRD19P (11752326_a_at) / Fold change /veh ANKRD19P (11752326_a_at) / RFU OR2T12 /// OR2T33 /// OR2T8 (11738714_s_at) / Fold change /veh OR2T12 /// OR2T33 /// OR2T8 (11738714_s_at) / RFU VCAN (11748164_a_at) / Fold change /veh VCAN (11748164_a_at) / RFU JSRP1 (11732532_at) / Fold change /veh JSRP1 (11732532_at) / RFU KRTAP10-11 (11738290_x_at) / Fold change /veh KRTAP10-11 (11738290_x_at) / RFU MYO3A (11730013_a_at) / Fold change /veh MYO3A (11730013_a_at) / RFU EBF3 (11725865_a_at) / Fold change /veh EBF3 (11725865_a_at) / RFU CAMK2N1 (11719241_x_at) / Fold change /veh CAMK2N1 (11719241_x_at) / RFU C5orf56 (11738088_a_at) / Fold change /veh C5orf56 (11738088_a_at) / RFU OLFML3 (11715873_a_at) / Fold change /veh OLFML3 (11715873_a_at) / RFU LOC100653217 /// NTM (11731650_a_at) / Fold change /veh LOC100653217 /// NTM (11731650_a_at) / RFU MAPK11 (11762145_a_at) / Fold change /veh MAPK11 (11762145_a_at) / RFU FIZ1 (11724087_x_at) / Fold change /veh FIZ1 (11724087_x_at) / RFU OASL (11726364_x_at) / Fold change /veh OASL (11726364_x_at) / RFU SOX15 (11748057_x_at) / Fold change /veh SOX15 (11748057_x_at) / RFU CD79A (11719716_a_at) / Fold change /veh CD79A (11719716_a_at) / RFU HIST1H1D (11736915_at) / Fold change /veh HIST1H1D (11736915_at) / RFU CASKIN2 (11723855_a_at) / Fold change /veh CASKIN2 (11723855_a_at) / RFU LOC730098 (11760151_x_at) / Fold change /veh LOC730098 (11760151_x_at) / RFU OR4N2 (11742367_at) / Fold change /veh OR4N2 (11742367_at) / RFU PRRT2 (11749266_a_at) / Fold change /veh PRRT2 (11749266_a_at) / RFU SNX32 (11753110_a_at) / Fold change /veh SNX32 (11753110_a_at) / RFU CDHR5 (11726645_a_at) / Fold change /veh CDHR5 (11726645_a_at) / RFU RCAN1 (11760418_a_at) / Fold change /veh RCAN1 (11760418_a_at) / RFU FAM167A (11723789_a_at) / Fold change /veh FAM167A (11723789_a_at) / RFU FAM26E (11764081_at) / Fold change /veh FAM26E (11764081_at) / RFU ISYNA1 (11749810_s_at) / Fold change /veh ISYNA1 (11749810_s_at) / RFU ACY1 (11761880_at) / Fold change /veh ACY1 (11761880_at) / RFU 11764098_at / Fold change /veh 11764098_at / RFU SAMD14 (11745864_x_at) / Fold change /veh SAMD14 (11745864_x_at) / RFU NPB (11741838_a_at) / Fold change /veh NPB (11741838_a_at) / RFU TMPRSS6 (11731388_a_at) / Fold change /veh TMPRSS6 (11731388_a_at) / RFU KRTAP10-2 (11738614_at) / Fold change /veh KRTAP10-2 (11738614_at) / RFU ARHGAP8 /// PRR5-ARHGAP8 (11727945_x_at) / Fold change /veh ARHGAP8 /// PRR5-ARHGAP8 (11727945_x_at) / RFU KRTAP5-7 /// NADSYN1 (11734609_at) / Fold change /veh KRTAP5-7 /// NADSYN1 (11734609_at) / RFU RASL12 (11751679_a_at) / Fold change /veh RASL12 (11751679_a_at) / RFU CDKN2B (11736163_a_at) / Fold change /veh CDKN2B (11736163_a_at) / RFU PRF1 (11729649_at) / Fold change /veh PRF1 (11729649_at) / RFU, ZNF638 /// ZNF638-IT1 / Fold change vs veh, ZNF638 /// ZNF638-IT1 / RFU, PANK3 / Fold change vs veh, PANK3 / RFU, SH3YL1 / Fold change vs veh, SH3YL1 / RFU, ZEB2 / Fold change vs veh, ZEB2 / RFU, NRIP1 / Fold change vs veh, NRIP1 / RFU, PTTG1IP / Fold change vs veh, PTTG1IP / RFU, CAPN2 / Fold change vs veh, CAPN2 / RFU, MED14 / Fold change vs veh, MED14 / RFU, SNORA58 / Fold change vs veh, SNORA58 / RFU, C1orf63 / Fold change vs veh, C1orf63 / RFU, LRRFIP1 / Fold change vs veh, LRRFIP1 / RFU, NDUFAF7 / Fold change vs veh, NDUFAF7 / RFU, SLC12A2 / Fold change vs veh, SLC12A2 / RFU, IBTK / Fold change vs veh, IBTK / RFU, ESF1 / Fold change vs veh, ESF1 / Fold change vs veh, TMEM50B / RFU, TAOK1 / Fold change vs veh, TAOK1 / RFU, ACBD3 / Fold change vs veh, ACBD3 / RFU, TMA16 / Fold change vs veh, TMA16 / RFU, RWDD3 / Fold change vs veh, RWDD3 / RFU, BCAT1 / Fold change vs veh, BCAT1 / RFU, EDEM3 / Fold change vs veh, EDEM3 / RFU, TMEM33 / Fold change vs veh, TMEM33 / RFU, WDR75 / Fold change vs veh, WDR75 / RFU, AHCTF1 / Fold change vs veh, AHCTF1 / RFU, TFRC / Fold change vs veh, TFRC / RFU, ZDHHC17 / Fold change vs veh, ZDHHC17 / RFU, NOM1 / Fold change vs veh, NOM1 / RFU, ARL8B / Fold change vs veh, ARL8B / RFU, ZBTB11 / Fold change vs veh, ZBTB11 / RFU, TAMM41 / Fold change vs veh, TAMM41 / RFU, KIAA1704 /// LOC100996395 / Fold change vs veh, KIAA1704 /// LOC100996395 / RFU, ING1 / Fold change vs veh, ING1 / RFU, TRMT61B / Fold change vs veh, TRMT61B / RFU, FUBP3 / Fold change vs veh, FUBP3 / RFU, TP53 / Fold change vs veh, TP53 / RFU, TNKS2 / Fold change vs veh, TNKS2 / RFU, ZFP14 / Fold change vs veh, ZFP14 / RFU, ACTR2 / Fold change vs veh, ACTR2 / RFU, PPP3R1 / Fold change vs veh, PPP3R1 / RFU, PIK3R1 / Fold change vs veh, PIK3R1 / RFU, HNRNPA1 / Fold change vs veh, HNRNPA1 / RFU, RNF170 / Fold change vs veh, RNF170 / RFU, ZNF28 / Fold change vs veh, ZNF28 / RFU, RNGTT / Fold change vs veh, RNGTT / RFU, OGT / Fold change vs veh, OGT / RFU, BRD1 / Fold change vs veh, BRD1 / RFU, MARS / Fold change vs veh, MARS / RFU, ZNF655 / Fold change vs veh, ZNF655 / RFU, FAHD1 / Fold change vs veh, FAHD1 / RFU, BDP1 / Fold change vs veh, BDP1 / RFU, LRRCC1 / Fold change vs veh, LRRCC1 / RFU, ARID1A / Fold change vs veh, ARID1A / RFU, ZNF146 / Fold change vs veh, ZNF146 / RFU, ZNF330 / Fold change vs veh, ZNF330 / RFU, GPN3 / Fold change vs veh, GPN3 / RFU, C9orf123 / Fold change vs veh, C9orf123 / RFU, N4BP2L2 / Fold change vs veh, N4BP2L2 / RFU, ARFIP1 / Fold change vs veh, ARFIP1 / RFU, FAM179B / Fold change vs veh, FAM179B / RFU, BCL10 / Fold change vs veh, BCL10 / RFU, UHRF1BP1L / Fold change vs veh, UHRF1BP1L / RFU, BET1 / Fold change vs veh, BET1 / RFU, CNOT2 / Fold change vs veh, CNOT2 / RFU, ZNF268 / Fold change vs veh, ZNF268 / Fold change vs veh, ZNF507 / RFU, DGCR2 / Fold change vs veh, DGCR2 / RFU, WDSUB1 / Fold change vs veh, WDSUB1 / Fold change vs veh, HSP90B1 /// MIR3652 / RFU, ADSS / Fold change vs veh, ADSS / RFU, GK / Fold change vs veh, GK / RFU, ZNF148 / Fold change vs veh, ZNF148 / RFU, TAF9 / Fold change vs veh, TAF9 / RFU, SLC1A5 / Fold change vs veh, SLC1A5 / RFU, SLMO2 / Fold change vs veh, SLMO2 / RFU, ABCC4 / Fold change vs veh, ABCC4 / RFU, LOC101060439 /// RAP1B / Fold change vs veh, LOC101060439 /// RAP1B / RFU, RFX7 / Fold change vs veh, RFX7 / RFU, GTPBP10 / Fold change vs veh, GTPBP10 / RFU, CNEP1R1 / Fold change vs veh, CNEP1R1 / RFU, BIVM-ERCC5 /// ERCC5 / Fold change vs veh, BIVM-ERCC5 /// ERCC5 / RFU, ILF3 / Fold change vs veh, ILF3 / RFU 11762660_at / Fold change /veh 11762660_at / RFU VCAN (11757783_s_at) / Fold change /veh VCAN (11757783_s_at) / RFU DDX43 (11728927_at) / Fold change /veh DDX43 (11728927_at) / RFU KRT8 (11758188_x_at) / Fold change /veh KRT8 (11758188_x_at) / RFU NKD1 (11759106_at) / Fold change /veh NKD1 (11759106_at) / RFU SRD5A1 (11742802_a_at) / Fold change /veh SRD5A1 (11742802_a_at) / RFU TPSAB1 /// TPSB2 (11721975_s_at) / Fold change /veh TPSAB1 /// TPSB2 (11721975_s_at) / RFU GSTM3 (11746129_a_at) / Fold change /veh GSTM3 (11746129_a_at) / RFU IL23R (11737362_x_at) / Fold change /veh IL23R (11737362_x_at) / RFU TMEM51 (11727254_a_at) / Fold change /veh TMEM51 (11727254_a_at) / RFU PIWIL2 (11732686_x_at) / Fold change /veh PIWIL2 (11732686_x_at) / RFU ORM1 (11744905_x_at) / Fold change /veh ORM1 (11744905_x_at) / RFU CCDC152 (11743942_at) / Fold change /veh CCDC152 (11743942_at) / RFU ECM1 (11717891_a_at) / Fold change /veh ECM1 (11717891_a_at) / RFU IL23R (11748794_a_at) / Fold change /veh IL23R (11748794_a_at) / RFU TNFAIP8L3 (11732012_x_at) / Fold change /veh TNFAIP8L3 (11732012_x_at) / RFU MBOAT4 (11741988_at) / Fold change /veh MBOAT4 (11741988_at) / RFU 11764193_at / Fold change /veh 11764193_at / RFU TMEM53 (11763286_at) / Fold change /veh TMEM53 (11763286_at) / RFU MAGEB2 (11727129_at) / Fold change /veh MAGEB2 (11727129_at) / RFU TMEM200A (11744735_a_at) / Fold change /veh TMEM200A (11744735_a_at) / RFU CCDC152 (11751479_a_at) / Fold change /veh CCDC152 (11751479_a_at) / RFU FAM211A (11726209_a_at) / Fold change /veh FAM211A (11726209_a_at) / RFU RGS16 (11746705_a_at) / Fold change /veh RGS16 (11746705_a_at) / RFU VCAN (11755009_s_at) / Fold change /veh VCAN (11755009_s_at) / RFU RHOB (11743442_s_at) / Fold change /veh RHOB (11743442_s_at) / RFU RGS16 (11720943_a_at) / Fold change /veh RGS16 (11720943_a_at) / RFU RGS16 (11720944_at) / Fold change /veh RGS16 (11720944_at) / RFU, VPS4B / Fold change vs veh, VPS4B / RFU, CREB1 / Fold change vs veh, CREB1 / RFU, DNAJC13 / Fold change vs veh, DNAJC13 / RFU, GNAQ / Fold change vs veh, GNAQ / RFU, CDK5R1 / Fold change vs veh, CDK5R1 / RFU, ZRANB3 / Fold change vs veh, ZRANB3 / RFU, CUL4A / Fold change vs veh, CUL4A / RFU, CCNY / Fold change vs veh, CCNY / RFU, UFL1 / Fold change vs veh, UFL1 / RFU, COG3 / Fold change vs veh, COG3 / RFU, DIAPH2 / Fold change vs veh, DIAPH2 / RFU, SKA2 / Fold change vs veh, SKA2 / RFU, AFF3 / Fold change vs veh, AFF3 / RFU, LMF1 / Fold change vs veh, LMF1 / RFU, IPO11 / Fold change vs veh, IPO11 / RFU, DFFB / Fold change vs veh, DFFB / RFU, FOXP1 / Fold change vs veh, FOXP1 / RFU, CARD8 / Fold change vs veh, CARD8 / RFU, STRN3 / Fold change vs veh, STRN3 / RFU, ADK / Fold change vs veh, ADK / RFU, RASSF2 / Fold change vs veh, RASSF2 / RFU, WIPF1 / Fold change vs veh, WIPF1 / RFU, LARP1B / Fold change vs veh, LARP1B / RFU, RASA1 / Fold change vs veh, RASA1 / RFU, RB1 / Fold change vs veh, RB1 / RFU, PPFIA1 / Fold change vs veh, PPFIA1 / RFU, MAT2A / Fold change vs veh, MAT2A / RFU, CCT5 / Fold change vs veh, CCT5 / RFU, WDR92 / Fold change vs veh, WDR92 / RFU, CUX1 / Fold change vs veh, CUX1 / RFU, TTC7A / Fold change vs veh, TTC7A / RFU, TMEM135 / Fold change vs veh, TMEM135 / RFU, DEPTOR / Fold change vs veh, DEPTOR / RFU, CPM / Fold change vs veh, CPM / RFU, DNAJB6 / Fold change vs veh, DNAJB6 / RFU, CACNA2D3 / Fold change vs veh, CACNA2D3 / RFU, DTX4 / Fold change vs veh, DTX4 / RFU, TFCP2 / Fold change vs veh, TFCP2 / RFU, GMCL1 /// GMCL1P1 / Fold change vs veh, GMCL1 /// GMCL1P1 / RFU, AEBP2 / Fold change vs veh, AEBP2 / RFU, SNHG1 /// SNORD22 /// SNORD25 /// SNORD26 /// SNORD27 /// SNORD28 /// SNORD29 /// SNORD31 / Fold change vs veh, SNHG1 /// SNORD22 /// SNORD25 /// SNORD26 /// SNORD27 /// SNORD28 /// SNORD29 /// SNORD31 / Fold change (Aza/veh), C12orf56 (ProbeSet 11735607_a_at) / Fold change (ACY-1035/veh), C12orf56 (ProbeSet 11735607_a_at) / Fold change (Aza/veh), FGFR1OP (ProbeSet 11751329_s_at) / Fold change (ACY-1035/veh), FGFR1OP (ProbeSet 11751329_s_at) / Fold change (Aza/veh), VPS36 (ProbeSet 11739960_a_at) / Fold change (ACY-1035/veh), VPS36 (ProbeSet 11739960_a_at) / RFU SYPL1 (11715823_x_at) / Fold change /veh SYPL1 (11715823_x_at) / RFU IGFBP7 (11715501_s_at) / Fold change /veh IGFBP7 (11715501_s_at) / RFU REEP3 (11722064_at) / Fold change /veh REEP3 (11722064_at) / RFU IGLL1 (11728026_x_at) / Fold change /veh IGLL1 (11728026_x_at): dose or concentration left out as unconfirmed
Details: ProbeSet 11743286_at; LIST D

## Nc1ncn([C@@H]2O[C@H](CO)[C@@H](O)[C@H]2O)c(=O)n1 [azacitidine]
  RFU, DTX4: 164.39 RFU
